{
  "source": "patent US20120328696A1",
  "about": "“ANTI-PARKINSONIAN COMPOUND ACETYLSALICYLIC ACID MALTOL ESTER” (Hutecs Korea Pharmaceutical Co., Ltd., priority 2008, published 2012)",
  "key": {"[1]": {"conditions": "Kim et al., 1997a; cited from earlier work"}, "[2]": {"conditions": "Kim et al., 1997b; cited from earlier work"}, "[3]": {"test_system": "glutathione peroxidase (GPx)", "conditions": "Kim et al., 1996; cited from earlier work"}, "C57BL/6 mice [4]": {"test_system": "C57BL/6 mice", "assay": "Locomotor activity after MPTP", "assay_type": "in vivo", "conditions": "AME 25 mg/kg p.o.; MPTP 25 mg/kg i.p. once a day for 7 days; 3 days after final MPTP", "procedure": "(§1) AME (25 mg/kg, p.o) administration was started 4 days (twice daily) before the first injection of MPTP and continued for 7 consecutive days (once a day). MPTP was injected (25 mg/kg, i.p) once a day 1 h after AME treatment for consecutive 7 days.\nLocomotor activity measured for 30 min 3 days after the last MPTP administration using an automated video-tracking system (Noldus Information Technology, Wagenin, The Netherlands). Eight test boxes (40×40×30 cm high) were operated simultaneously by an IBM computer. Animals were studied individually during locomotion in each test box, where they were adapted for 5 min before starting the experiment. […] The distance traveled in cm by the animals in horizontal locomotor activity was analyzed. Data were collected and analyzed between 09:00 and 17:00 h (Kim et al., 2001)."}, "C57BL/6 mice [5]": {"test_system": "C57BL/6 mice", "assay": "Rota-rod test after MPTP", "assay_type": "in vivo", "conditions": "AME 25 mg/kg p.o.; MPTP 25 mg/kg i.p. once a day for 7 days; 3 days after final MPTP", "procedure": "as §1\nThe apparatus (Ugo Basile model 7650) consisted of a base platform and a rotating rod with a nonslippery surface. The rod was placed at a height of 15 cm from the base. The rod, 30 cm in length, was divided into 5 equal sections by 6 opaque disks (so that the subjects cannot be distracted by one another). To assess motor performance, the mice were first trained on the apparatus 2 minutes at a rate 4 r.p.m. per 30 s prior to the test. The test was performed 30 minutes after training and an accelerating paradigm was applied at a rate 4 r.p.m. per 30 s, starting from 4 r.p.m. to a maximum speed of 40 r.p.m., then the rotation speed was kept constant at 40 r.p.m. for a maximum of 300 s. The duration for which the animal could maintain balance on the rotating drum was measured as the rotarod latency, with a maximal cut-off time of 300 s."}, "[6]": {"conditions": "Kim et al., 1997a; cited from earlier work", "remark": "listed apart in the source"}, "[7]": {"test_system": "dopamine (DA), DOPAC, HVA", "assay": "Striatal DA, DOPAC and HVA after MPTP (HPLC)", "assay_type": "in vivo, mice", "conditions": "AME 25 mg/kg p.o., MPTP 25 mg/kg i.p. x7 days", "procedure": "as §1\nAt 3 days after last MPTP injection, mice were killed by cervical dislocation. The brains were removed and placed on an ice-cooled plate. Striatum was dissected and immediately frozen on dry ice and stored at −70° C. until extraction. Brain regions obtained from each animal were weighed, ultrasonicated in 10% perchloric acid containing 10 ng/mg of the internal standard dihydroxybenzilamine, and centrifuged at 20,000×g for 10 min. The levels of DA and its metabolites 3,4-dihydroxyphenylacetic acid (DOPAC) and homovanillic acid (HVA) in brain tissue extracts were determined by HPLC coupled with electrochemical detection as described (Kim et al., 1999). Briefly, striatal tissues were sonicated in 0.2 M perchloric acid (20% W/V) containing the internal standard 3,4-dihydroxybenzylamine (10 mg wet tissue/ml). The homogenate was centrifuged and a 20 μl aliquot of the supernatant was injected into the HPLC equipped with a 3 μm C18 column. The mobile phase was comprised of 26 ml of acetonitrile, 21 ml of tetrahydrofuran and 960 ml of 0.15 M monochloroacetic acid (pH 3.0) containing 50 mg/l of EDTA and 200 mg/l of sodium octyl sulfate. The amount of DA, DOPAC and HVA were determined by comparison of peak height ratio of tissue sample with standards, and were expressed in nanograms per gram of wet weight of tissue."}, "[8]": {"conditions": "in vitro; Han et al., 1994; cited from earlier work"}, "tyrosine hydroxylase": {"test_system": "tyrosine hydroxylase", "assay": "Striatal and nigral TH-like immunoreactivity after MPTP (immunocytochemistry)", "assay_type": "in vivo, mice", "conditions": "AME 25 mg/kg p.o., MPTP 25 mg/kg i.p. x7 days", "procedure": "as §1\nAnimals were sacrificed at 3 days after final MPTP-treatment. They were anesthetized with 60% urethane and perfused transcardially with 200 ml of 50 mM phosphate buffered saline (PBS), followed by 50 ml of paraformaldehyde in PBS. The brain were fixed at 4° C. for 24 h in the same fixative and then cryoprotected in 30% sucrose. The brains were sectioned on a horizontal sliding microstome into 35 μm transverse free-floating sections. The immunocytochemistry was performed as described previously (Kim et al., 2000a; Kim et al., 2000b). Briefly, prior to incubation with the primary antibodies, sections were preincubated with 0.3% hydrogen peroxide in PBS for 30 min (to block endogenous peroxidase activity), then in PBS containing 0.4% Triton X-100 for 20 min and 1% normal serum for 20 min. […] The quantitative analyses were performed using a computer-based image analysis system (Optimas version 6.2; Neurolucida Program) (Kim et al., 1999)."}},
  "data": [
    {"smiles": "CC(=O)Oc1ccccc1C(=O)Oc1c(C)occc1=O", "note": "[AME, 3-(2-methyl-4-pyronyl)-2-acetyloxybenzoate]", "values": [
      {"measurement": "gastrointestinal damage", "setting": "[1]", "result": "negligible gastrointestinal damage"},
      {"measurement": "neuroexcitotoxicity", "setting": "[2]", "result": "attenuates neuroexcitotoxicity"},
      {"measurement": "activity of glutathione peroxidase (GPx)", "setting": "[3]", "result": "elevating the activity of glutathione peroxidase (GPx)"},
      {"measurement": "effect on MPTP-induced hypolocomotor activity", "setting": "C57BL/6 mice [4]", "result": "significant attenuated"},
      {"measurement": "effect on MPTP-induced impairment in rota-rod performance", "setting": "C57BL/6 mice [5]", "result": "significantly attenuated"},
      {"measurement": "antithrombotic efficacy", "setting": "[6]", "result": "antithrombotic efficacy"},
      {"measurement": "effect on MPTP-induced increase in DA turnover rate", "setting": "[7]; p<0.01 vs. MPTP alone", "result": "significant attenuated"},
      {"measurement": "effect on MPTP-induced reduction in striatal HVA", "setting": "[7]; p<0.01 vs. MPTP alone", "result": "significant attenuated"},
      {"measurement": "effect on MPTP-induced reduction in striatal dopamine (DA)", "setting": "[7]; p<0.01 vs. MPTP alone", "result": "significant attenuated"},
      {"measurement": "effect on MPTP-induced reduction in striatal DOPAC", "setting": "[7]; p<0.05 vs. MPTP alone", "result": "significant attenuated"},
      {"measurement": "antioxidative efficacy", "setting": "[8]", "result": "antioxidative efficacy in vitro"},
      {"measurement": "effect on MPTP-induced decrease in striatal TH-IR", "setting": "tyrosine hydroxylase; striatum", "result": "significantly attenuated these decreases in TH-IR"},
      {"measurement": "effect on MPTP-induced decrease in substantia nigra TH-IR", "setting": "tyrosine hydroxylase; substantia nigra", "result": "significantly attenuated these decreases in TH-IR"}
    ]}
  ]
}
